# Reference: ChEMBL document CHEMBL1201862, “PubChem BioAssay data set” (2004)
# Activity calls are given as the source filed them.
# How the values were obtained:
# Large T antigen = Large T antigen (Simian virus 40, UniProt P03070); assay type: functional, Betapolyomavirus macacae;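 also: Confirmatory-stage PubChem screen for compounds that inhibit SV40 T antigen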
# [1] = target: T1, Bifunctional protein GlmU (Mycobacterium tuberculosis, UniProt P9WMN3); test: Inhibitors of Mycobacterial Glucosamine-1-phosphate acetyl transferase (GlmU). Secondary screen.; set-up: species or system Mycobacterium tuberculosis H37Rv
# T1 sequence (P9WMN3 whole entry): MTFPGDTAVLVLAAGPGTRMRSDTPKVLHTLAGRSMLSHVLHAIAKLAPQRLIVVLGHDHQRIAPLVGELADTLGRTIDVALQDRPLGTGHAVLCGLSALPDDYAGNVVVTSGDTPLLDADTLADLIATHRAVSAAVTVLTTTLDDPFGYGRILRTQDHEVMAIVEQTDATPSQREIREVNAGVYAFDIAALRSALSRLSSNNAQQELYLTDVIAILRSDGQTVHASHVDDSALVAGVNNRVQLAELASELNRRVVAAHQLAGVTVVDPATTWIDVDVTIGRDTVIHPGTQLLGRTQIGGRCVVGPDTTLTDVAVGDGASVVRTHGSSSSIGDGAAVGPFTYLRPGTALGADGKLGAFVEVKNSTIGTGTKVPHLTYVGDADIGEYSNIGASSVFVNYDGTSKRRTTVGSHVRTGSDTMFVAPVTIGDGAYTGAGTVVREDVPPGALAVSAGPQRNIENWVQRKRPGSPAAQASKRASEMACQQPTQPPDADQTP
# [2] = target: T2, Carboxy-terminal domain RNA polymerase II polypeptide A small phosphatase 1 (Homo sapiens, UniProt Q9GZU7); test: inhibitors of CTDSP1, concentration-response testing, biochemical assay, absorbance-based, actives from ultra-high-throughput screening (AID 540297); assay type: functional
# T2 sequence (Q9GZU7 whole entry): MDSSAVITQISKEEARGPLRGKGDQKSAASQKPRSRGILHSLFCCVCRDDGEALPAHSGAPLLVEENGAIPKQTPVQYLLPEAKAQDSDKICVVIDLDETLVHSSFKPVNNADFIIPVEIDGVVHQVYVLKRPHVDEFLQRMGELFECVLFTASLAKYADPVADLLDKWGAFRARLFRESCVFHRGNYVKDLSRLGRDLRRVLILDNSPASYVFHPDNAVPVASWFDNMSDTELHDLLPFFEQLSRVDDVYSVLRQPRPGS
# Genome polyprotein = Genome polyprotein (dengue virus type 2, UniProt P29990); test: Dengue-2 NS5 methyltransferase inhibitors, primary screen, biochemical, confirmation dose response (AID 588689); assay type: functional
# Chain of Genome polyprotein (P29990 2492-3391 limits assumed): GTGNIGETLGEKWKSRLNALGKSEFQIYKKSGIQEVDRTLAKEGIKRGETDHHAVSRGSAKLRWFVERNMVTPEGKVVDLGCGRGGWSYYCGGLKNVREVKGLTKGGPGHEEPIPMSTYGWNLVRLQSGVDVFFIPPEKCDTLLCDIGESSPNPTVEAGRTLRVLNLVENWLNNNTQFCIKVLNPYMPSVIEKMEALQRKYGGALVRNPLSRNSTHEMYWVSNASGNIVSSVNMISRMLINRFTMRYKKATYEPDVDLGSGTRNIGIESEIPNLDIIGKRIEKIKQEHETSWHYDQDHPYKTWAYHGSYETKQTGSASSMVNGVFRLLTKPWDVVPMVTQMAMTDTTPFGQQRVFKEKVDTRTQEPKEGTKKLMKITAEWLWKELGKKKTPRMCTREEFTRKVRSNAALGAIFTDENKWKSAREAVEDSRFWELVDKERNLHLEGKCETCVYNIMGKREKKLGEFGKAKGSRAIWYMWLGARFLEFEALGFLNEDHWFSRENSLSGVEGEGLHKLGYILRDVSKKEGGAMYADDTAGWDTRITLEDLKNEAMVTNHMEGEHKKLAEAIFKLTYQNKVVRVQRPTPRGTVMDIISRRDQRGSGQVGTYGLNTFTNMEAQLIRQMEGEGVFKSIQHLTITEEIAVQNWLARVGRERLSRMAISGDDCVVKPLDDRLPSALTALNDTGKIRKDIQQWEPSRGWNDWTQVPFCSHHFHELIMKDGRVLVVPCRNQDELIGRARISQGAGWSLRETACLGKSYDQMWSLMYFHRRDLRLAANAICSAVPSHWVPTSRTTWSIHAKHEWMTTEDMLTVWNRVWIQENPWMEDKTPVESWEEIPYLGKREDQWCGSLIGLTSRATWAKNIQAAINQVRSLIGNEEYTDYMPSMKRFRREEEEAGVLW
# [3] = target: Polyadenylate-binding protein 1 (Homo sapiens, UniProt P11940); test: PABP inhibition in translation initiation, SAR follow-up (AID 435018); assay type: functional
# Chain of Polyadenylate-binding protein 1 (P11940 whole entry): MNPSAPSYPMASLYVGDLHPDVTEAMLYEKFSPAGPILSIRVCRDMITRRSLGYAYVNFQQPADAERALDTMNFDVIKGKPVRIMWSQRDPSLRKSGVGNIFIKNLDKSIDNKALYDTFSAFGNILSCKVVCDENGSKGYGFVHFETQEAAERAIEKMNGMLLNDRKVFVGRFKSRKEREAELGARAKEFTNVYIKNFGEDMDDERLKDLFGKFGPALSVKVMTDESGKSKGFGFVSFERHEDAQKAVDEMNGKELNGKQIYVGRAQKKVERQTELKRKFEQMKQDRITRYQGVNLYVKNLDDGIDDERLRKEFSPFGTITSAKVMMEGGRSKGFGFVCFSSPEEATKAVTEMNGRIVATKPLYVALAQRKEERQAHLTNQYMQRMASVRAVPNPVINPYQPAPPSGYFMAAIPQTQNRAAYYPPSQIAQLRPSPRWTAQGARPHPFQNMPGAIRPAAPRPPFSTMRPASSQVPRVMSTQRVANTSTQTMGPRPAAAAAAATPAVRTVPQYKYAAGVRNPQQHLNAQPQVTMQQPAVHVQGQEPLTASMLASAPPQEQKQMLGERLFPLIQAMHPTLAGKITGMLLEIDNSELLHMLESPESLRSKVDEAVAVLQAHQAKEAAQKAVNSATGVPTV
# [4] = target: Eukaryotic translation initiation factor 4H (Homo sapiens, UniProt Q15056); test: eIF4H inhibition in translation initiation, SAR follow-up (AID 435011); assay type: functional
# [5] = M. tuberculosis H37Rv growth inhibitors, H37Rv strain (AID 1626); assay type: functional
# CAAX prenyl protease 2 = target: T3, CAAX prenyl protease 2 (Saccharomyces cerevisiae S288c, UniProt Q03530); assay type: biochemical
# T3 sequence (Q03530 whole entry): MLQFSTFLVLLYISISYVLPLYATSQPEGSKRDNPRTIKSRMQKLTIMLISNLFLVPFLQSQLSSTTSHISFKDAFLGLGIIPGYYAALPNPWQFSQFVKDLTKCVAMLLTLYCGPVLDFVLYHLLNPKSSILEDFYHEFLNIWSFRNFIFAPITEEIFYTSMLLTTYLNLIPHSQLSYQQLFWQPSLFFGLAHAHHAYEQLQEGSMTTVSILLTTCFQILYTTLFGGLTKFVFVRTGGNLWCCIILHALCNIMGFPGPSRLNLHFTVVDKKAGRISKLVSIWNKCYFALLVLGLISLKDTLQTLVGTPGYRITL
# Ion channel NompC = Ion channel NompC (Danio rerio, UniProt Q7T1G6); test: Fluorescence counterscreen assay for TRPML3 agonists: dose response cell-based high-throughput screening assay to identify agonists of the transient receptor potential channel N1 (TRPN1). [Related pubchem assays: 1526, 1424, 1448 ]; assay type: functional
# Chain of Ion channel NompC (Q7T1G6 whole entry): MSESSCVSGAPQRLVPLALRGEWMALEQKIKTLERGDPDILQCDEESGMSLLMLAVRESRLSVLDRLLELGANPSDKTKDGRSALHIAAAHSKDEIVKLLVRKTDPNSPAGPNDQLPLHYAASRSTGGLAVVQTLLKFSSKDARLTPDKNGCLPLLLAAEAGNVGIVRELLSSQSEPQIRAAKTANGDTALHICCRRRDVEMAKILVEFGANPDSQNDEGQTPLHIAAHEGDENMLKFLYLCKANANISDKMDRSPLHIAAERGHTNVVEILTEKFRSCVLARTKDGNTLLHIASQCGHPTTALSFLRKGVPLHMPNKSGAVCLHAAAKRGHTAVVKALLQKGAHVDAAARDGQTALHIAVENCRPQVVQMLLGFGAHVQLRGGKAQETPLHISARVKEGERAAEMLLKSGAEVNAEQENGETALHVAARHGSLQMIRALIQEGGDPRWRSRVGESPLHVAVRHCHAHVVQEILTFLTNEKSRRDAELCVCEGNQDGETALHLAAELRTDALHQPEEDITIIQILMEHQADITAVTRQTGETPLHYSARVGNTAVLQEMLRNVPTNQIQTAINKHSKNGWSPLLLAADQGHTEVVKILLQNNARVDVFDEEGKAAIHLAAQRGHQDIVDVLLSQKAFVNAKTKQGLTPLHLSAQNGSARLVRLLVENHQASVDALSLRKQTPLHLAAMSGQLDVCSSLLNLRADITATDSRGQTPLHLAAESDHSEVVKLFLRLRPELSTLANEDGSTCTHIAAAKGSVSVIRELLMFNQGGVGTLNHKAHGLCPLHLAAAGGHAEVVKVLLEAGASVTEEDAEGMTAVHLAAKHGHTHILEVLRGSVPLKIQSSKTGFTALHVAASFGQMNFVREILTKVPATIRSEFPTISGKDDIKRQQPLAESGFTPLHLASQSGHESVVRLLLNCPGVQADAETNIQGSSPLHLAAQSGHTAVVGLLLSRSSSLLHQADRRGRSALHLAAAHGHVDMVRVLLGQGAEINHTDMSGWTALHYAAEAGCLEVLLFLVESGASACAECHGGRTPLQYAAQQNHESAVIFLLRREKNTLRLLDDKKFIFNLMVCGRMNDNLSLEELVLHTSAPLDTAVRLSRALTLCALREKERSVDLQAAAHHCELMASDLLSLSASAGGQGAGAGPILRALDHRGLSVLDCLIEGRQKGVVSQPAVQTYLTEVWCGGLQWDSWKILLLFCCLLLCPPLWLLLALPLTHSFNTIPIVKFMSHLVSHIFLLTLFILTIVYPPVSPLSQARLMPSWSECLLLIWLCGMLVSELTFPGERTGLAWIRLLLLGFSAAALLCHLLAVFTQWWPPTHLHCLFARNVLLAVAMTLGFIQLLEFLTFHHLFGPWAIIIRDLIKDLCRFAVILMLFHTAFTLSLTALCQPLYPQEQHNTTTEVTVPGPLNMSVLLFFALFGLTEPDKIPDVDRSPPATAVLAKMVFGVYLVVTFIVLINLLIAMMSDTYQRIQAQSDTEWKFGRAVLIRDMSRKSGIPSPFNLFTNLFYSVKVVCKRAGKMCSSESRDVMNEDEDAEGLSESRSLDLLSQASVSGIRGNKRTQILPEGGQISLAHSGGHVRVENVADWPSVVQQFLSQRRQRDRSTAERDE
# Mucolipin-3 = target: T4, Mucolipin-3 (Homo sapiens, UniProt Q8TDD5); test: Dose response cell-based high-throughput screening assay for agonists of the transient receptor potential channel ML3 (TRPML3). [Related pubchem assays: 1526, 1424, 1448 ]; assay type: functional
# T4 sequence (Q8TDD5 whole entry): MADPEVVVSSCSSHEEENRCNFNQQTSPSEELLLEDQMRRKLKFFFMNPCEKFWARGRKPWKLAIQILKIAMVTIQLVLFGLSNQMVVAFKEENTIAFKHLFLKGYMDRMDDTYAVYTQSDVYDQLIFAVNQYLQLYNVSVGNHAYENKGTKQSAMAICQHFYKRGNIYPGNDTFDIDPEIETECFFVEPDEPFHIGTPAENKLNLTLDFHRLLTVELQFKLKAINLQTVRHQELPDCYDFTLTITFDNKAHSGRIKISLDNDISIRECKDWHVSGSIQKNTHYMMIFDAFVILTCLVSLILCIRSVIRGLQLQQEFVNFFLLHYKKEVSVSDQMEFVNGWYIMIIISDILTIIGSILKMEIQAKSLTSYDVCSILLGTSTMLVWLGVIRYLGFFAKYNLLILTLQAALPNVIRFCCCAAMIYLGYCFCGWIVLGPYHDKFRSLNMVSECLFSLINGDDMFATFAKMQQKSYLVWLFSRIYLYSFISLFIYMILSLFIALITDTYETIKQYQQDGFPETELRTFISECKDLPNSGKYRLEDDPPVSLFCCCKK
# [6] = target: Induced myeloid leukemia cell differentiation protein Mcl-1 (Homo sapiens, UniProt Q07820); assay type: functional
# Chain of Induced myeloid leukemia cell differentiation protein Mcl-1 (Q07820 whole entry): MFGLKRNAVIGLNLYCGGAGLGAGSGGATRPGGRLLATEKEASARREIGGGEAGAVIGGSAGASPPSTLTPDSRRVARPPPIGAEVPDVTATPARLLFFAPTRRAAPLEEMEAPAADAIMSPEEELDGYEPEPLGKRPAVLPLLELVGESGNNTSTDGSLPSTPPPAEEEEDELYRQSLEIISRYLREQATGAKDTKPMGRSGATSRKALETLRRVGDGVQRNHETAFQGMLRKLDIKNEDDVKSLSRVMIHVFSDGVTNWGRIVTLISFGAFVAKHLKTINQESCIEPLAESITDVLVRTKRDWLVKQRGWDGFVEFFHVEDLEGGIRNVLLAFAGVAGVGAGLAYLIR
# [7] = Luminescence Cell-Based Dose Retest to Confirm Inhibitors of Cancer Stem Cells. [Related pubchem assays (depositor defined):AID2717, AID2721]; assay type: functional; conditions: Homo sapiens
# Chain of Large T antigen (P03070 whole entry): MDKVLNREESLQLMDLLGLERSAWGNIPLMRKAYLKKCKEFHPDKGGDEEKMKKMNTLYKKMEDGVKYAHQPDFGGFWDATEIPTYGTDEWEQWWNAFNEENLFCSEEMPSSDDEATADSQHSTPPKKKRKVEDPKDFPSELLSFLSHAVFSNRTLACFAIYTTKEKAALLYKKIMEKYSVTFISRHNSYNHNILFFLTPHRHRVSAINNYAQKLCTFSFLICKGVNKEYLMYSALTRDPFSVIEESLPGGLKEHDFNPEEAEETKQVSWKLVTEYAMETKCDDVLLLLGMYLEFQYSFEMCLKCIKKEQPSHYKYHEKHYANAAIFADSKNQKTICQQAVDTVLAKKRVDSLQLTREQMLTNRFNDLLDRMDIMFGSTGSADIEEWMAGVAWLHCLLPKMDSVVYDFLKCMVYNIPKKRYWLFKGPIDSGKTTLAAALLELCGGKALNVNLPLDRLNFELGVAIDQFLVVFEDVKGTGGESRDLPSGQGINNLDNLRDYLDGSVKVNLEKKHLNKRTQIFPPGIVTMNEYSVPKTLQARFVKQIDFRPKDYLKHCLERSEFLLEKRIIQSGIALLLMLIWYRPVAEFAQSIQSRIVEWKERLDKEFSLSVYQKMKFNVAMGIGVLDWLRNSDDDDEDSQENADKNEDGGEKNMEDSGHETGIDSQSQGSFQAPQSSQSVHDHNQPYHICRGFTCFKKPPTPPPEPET
smiles,measurement,setting,value
O=C1NN(c2ccccc2)C(=O)/C1=C/c1ccc(-c2ccc(Cl)c(C(=O)O)c2)o1,IC50,Large T antigen,17.1 µM (active)
same,IC50,[1],80.4 µM (active)
same,IC50,[2],4.07 µM (active)
same,IC50,Genome polyprotein,32.2 µM (active)
COc1cc(/C=N/NC(=O)c2ccccc2)ccc1OCC(=O)Nc1ccc([N+](=O)[O-])cc1,IC50,[3],49.5 µM (active)
same,IC50,[4],2.74 µM (active)
Cc1sc(N)nc1-c1ccccc1,IC50,[5],> 100 µM (active)
Cc1ccc(OCCn2c3ccccc3n3nc(C)c(=O)nc23)cc1,AC50,CAAX prenyl protease 2,6.85 µM (active)
O=S(=O)(NC1CCCCCC1)c1cccc2cccnc12,EC50,Ion channel NompC,> 29.9 µM (not active)
same,EC50,Mucolipin-3,3.4 µM (active)
CCC1CCCCN1S(=O)(=O)c1ccc(S(=O)(=O)N(Cc2ccccn2)CC2CCCO2)cc1 (centres undefined),EC50,Ion channel NompC,> 29.9 µM (not active)
same,IC50,[6],< 0.4 µM (not active)
same,EC50,Mucolipin-3,1.81 µM (active)
same,AC50,[7],2.4 µM (active)
